SMILES strings stand for the structures.

For this assay, the target named is T1, GPCR GPR40 (Homo sapiens, UniProt O14842).
T1 construct: expressed in transfected cells; host or cells: HEK293
T1 sequence (O14842 whole entry): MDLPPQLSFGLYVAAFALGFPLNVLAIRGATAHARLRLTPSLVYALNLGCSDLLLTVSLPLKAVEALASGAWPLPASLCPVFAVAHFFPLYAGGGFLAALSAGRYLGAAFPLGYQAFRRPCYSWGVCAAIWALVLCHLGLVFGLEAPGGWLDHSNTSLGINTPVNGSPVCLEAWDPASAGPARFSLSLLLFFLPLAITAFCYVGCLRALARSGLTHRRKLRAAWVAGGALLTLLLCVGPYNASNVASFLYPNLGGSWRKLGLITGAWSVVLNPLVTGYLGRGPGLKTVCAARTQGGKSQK
The experiment in a line: In-vitro FLIPR assay with recombinant cells which express the GPCR GPR40. Particulars: intracellular Ca2+ in recombinant HEK293 cells expressing GPR40, 100% = 10 μM linoleic acid. Type of assay: cell-based. As for the experimental part:
In-Vitro FLIPR Assay with Recombinant Cells which Express the GPCR GPR40
Function-testing assays were carried out by means of the FLIPR technique (“fluorescence imaging plate reader”, Molecular Devices Corp.). For this purpose, agonist-induced alterations in the intracellular concentration of Ca^2+ in recombinant HEK293 cells which express the GPCR GPR40 were determined.
For the investigations, cells were seeded in 96-well microtiter plates (60 000 cells/well) and left to grow overnight. The medium was removed and the cells were incubated in buffer which contained the fluorescent dye Fluo-4. After this loading with dye, the cells were washed, test substance was added and alterations in the intracellular Ca^2+ concentration were measured in the FLIPR instrument. Results have been depicted as percentage alteration relative to the control (0%: no test substance added; 100%: 10 μM reference agonist linoleic acid added) used to calculate dose/activity plots and EC50 values were determined.
By EC50 is commonly meant the midpoint of the concentration-response curve. With `CC(C)c1ccc(NC(=O)C(=O)Nc2cccc(CCC(=O)O)c2)c(Br)c1` [compound 21], the EC50 was found to be 16800 nM. In the case of `CC(C)c1ccc(NC(=O)C(=O)Nc2ccc(CCC(=O)O)cc2)c(C(F)(F)F)c1` [compound 9] it was 100 nM; in that of `O=C(O)CCc1cccc(NC(=O)C(=O)Nc2c(Cl)c(Cl)cc(Cl)c2Cl)c1` [compound 24], 60100 nM; in that of `O=C(O)CCc1ccc(NC(=O)C(=O)Nc2ccc(Br)cc2Cl)cc1` [compound 14], 600 nM.

With `O=C(O)CCc1ccc(NC(=O)C(=O)Nc2cc(C(F)(F)F)ccc2Br)cc1` [compound 11], the EC50 came to 800 nM. The figure for `O=C(O)CCc1ccc(NC(=O)C(=O)Nc2ccc(Cl)cc2Cl)cc1` [compound 7] is 700 nM.

The values are drawn from US8518875B2, “(Carboxylalkylenephenyl)phenyloxamides, method for the production thereof and use of same as a medicament” (SANOFI, priority 2007, dated 2013).
